The term IC50 denotes the concentration needed to halve the response being measured.

For 57 compounds, IC50 results are on record in PubChem BioAssay AID504528 (Sanford-Burnham Center for Chemical Genomics, 2011).

The source made the active and inactive calls.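 How the source made its calls: active means mean IC50 of 20 µM or lower; inactive means the rest.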

This assay relates to HEK-293T NF-kB-Luc cytotoxicity, resazurin fluorescence, 14 h. Briefly: HEK-293T cell viability loss – cytotoxicity control for B-cell antigen receptor NF-kB inhibitors, SAR follow-up (AID 504528).
As to `CCCCc1ccc(-c2noc(CCC(=O)NCC)n2)cc1`, the IC50 was > 79 µM (inactive).

Turning to `CC(C)Nc1ccc(C(CC(=O)O)NC(=O)c2ccccc2)cc1[N+](=O)[O-]` (configuration not stated), the IC50 is > 79 µM (inactive).

With `Cc1oc(-c2ccc(OC(F)(F)F)cc2)nc1CSCC(=O)NC1CC1`, the IC50 is > 79 µM (inactive).

As for `CCCOc1ccc(-c2nc(CSCC(=O)NC3CC3)c(C)o2)cc1`, the IC50 was > 79 µM (inactive).

Consider `C#CCNC(=O)CSCc1nc(-c2ccc(OCC)cc2)oc1C`, for which the IC50 is > 79 µM (inactive).

`CCOc1cccc(-c2nc(CSCC(=O)NC3CC3)c(C)o2)c1`: the IC50 is > 79 µM (inactive).

As for `CCNC(=O)CCc1nc(-c2cccc(F)c2)no1`, the IC50 was > 79 µM (inactive).

On to `CCCCOc1ccc(-c2nc(CSCC(=O)NC3CC3)c(C)o2)cc1`, for which the IC50 was > 79 µM (inactive).

With `CC(C)c1ccc(-c2noc(CCC(=O)NC3CC3)n2)cc1`, the IC50 is > 79 µM (inactive).

For `CCCCOc1ccc(-c2nc(CSCC(=O)NCc3ccco3)c(C)o2)cc1`, the IC50 was > 79 µM (inactive).

With `CNC(=O)CCc1nc(-c2ccc(C(C)C)cc2)no1`, the IC50 is > 79 µM (inactive).

Turning to `CC(C)(C)c1ccc(-c2noc(CCC(=O)NC3CCC3)n2)cc1`, the IC50 is > 79 µM (inactive).

Take `CCCOc1ccc(-c2nc(CSCC(=O)O)c(C)o2)cc1`: the IC50 is > 79 µM (inactive).

Take `CCOc1ccc(-c2nc(CSCC(=O)N(C)C)c(C)o2)cc1`: the IC50 is > 79 µM (inactive).

Take `CCOc1ccc(-c2nc(CSCC(=O)NC3CCC3)c(C)o2)cc1`: the IC50 is > 79 µM (inactive).

With `CCc1ccc(-c2noc(CCC(=O)NC(C)CC)n2)cc1` (configuration not stated), the IC50 was > 79 µM (inactive).

For `CCCOc1ccc(-c2nc(CSCC(=O)NCc3ccco3)c(C)o2)cc1`, the IC50 was 59.8 µM (inactive).

Regarding `CCOc1ccc(-c2nc(CSCC(=O)NC)c(C)o2)cc1`, the IC50 is > 79 µM (inactive).

With `Cc1ccc(-c2nc(CSCC(=O)NCc3ccco3)c(C)o2)cc1`, the IC50 is > 79 µM (inactive).

Regarding `CCNC(=O)CCc1nc(-c2ccccc2C)no1`, the IC50 is > 79 µM (inactive).

Consider `CCOc1ccc(-c2nc(CSCC(N)=O)c(C)o2)cc1`, for which the IC50 was > 79 µM (inactive).

On to `Cc1oc(-c2ccc(C(F)(F)F)cc2)nc1CSCC(=O)O`, for which the IC50 was > 79 µM (inactive).

Regarding `Cc1ccc(-c2nc(CSCC(=O)NC3CC3)c(C)o2)cc1`, the IC50 is > 79 µM (inactive).

Regarding `CCCCOc1ccc(-c2nc(CSCC(=O)O)c(C)o2)cc1`, the IC50 is > 79 µM (inactive).

Consider `CCCCc1ccc(-c2noc(CCC(=O)NC)n2)cc1`, for which the IC50 is > 79 µM (inactive).

`CCNC(=O)CCc1nc(-c2cccc(OC)c2)no1`: the IC50 is > 79 µM (inactive).

For the compound `CCc1ccc(-c2nc(CSCC(=O)NC3CC3)c(-c3ccccc3)o2)cc1`, the IC50 was > 79 µM (inactive).

As to `CCOc1ccc(-c2nc(CSCC(=O)N3CCOCC3)c(C)o2)cc1`, the IC50 is > 79 µM (inactive).

`COc1cccc(-c2cc(=O)c3cc(NC(=O)c4ccc(N(C)C)cc4)ccc3[nH]2)c1`: the concentration for half-maximal inhibition (IC50) was 2.25 µM.

On to `Cc1oc(-c2ccc(OC(F)(F)F)cc2)nc1CSCC(=O)O`, for which the IC50 is > 79 µM (inactive).

For the compound `CCNC(=O)CCc1nc(-c2c(Cl)cccc2Cl)no1`, the IC50 was > 79 µM (inactive).

As to `CCOc1ccc(-c2nc(CSCC(=O)NCC3CC3)c(C)o2)cc1`, the IC50 was > 79 µM (inactive).

In the case of `CCCCc1ccc(-c2noc(CCC(=O)NC(C)CC)n2)cc1` (configuration not stated), the IC50 was > 79 µM (inactive).

Take `CCNC(=O)CCc1nc(-c2cccc(C)c2)no1`: the IC50 was > 79 µM (inactive).

On to `CC(C)c1ccc(-c2noc(CCC(=O)NC(C)(C)C)n2)cc1`, for which the IC50 is > 79 µM (inactive).

As to `CCNC(=O)CCc1nc(-c2ccc(CC)cc2)no1`, the IC50 was > 79 µM (inactive).

Turning to `CCc1ccc(-c2noc(CCC(=O)NC3CC3)n2)cc1`, the IC50 was > 79 µM (inactive).

For the compound `CCCCc1ccc(-c2noc(CCC(=O)NC(C)(C)C)n2)cc1`, the IC50 is > 79 µM (inactive).

On to `CCOc1ccccc1-c1nc(CSCC(=O)O)c(C)o1`, for which the IC50 was > 79 µM (inactive).

On to `COc1ccc(C(=O)Nc2ccc3[nH]c(-c4cccc(OC)c4)cc(=O)c3c2)cc1`, for which the IC50 was > 79 µM (inactive).

In the case of `CCOc1ccccc1-c1nc(CSCC(=O)NC2CC2)c(C)o1`, the IC50 was > 79 µM (inactive).

For the compound `CCc1ccc(-c2noc(CCC(=O)NC(C)(C)C)n2)cc1`, the IC50 is > 79 µM (inactive).

On to `CCC(C)NC(=O)CCc1nc(-c2ccc(C(C)C)cc2)no1` (configuration not stated), for which the IC50 was > 79 µM (inactive).

`CCC(C)NC(=O)CCc1nc(-c2ccc(C(C)(C)C)cc2)no1` (configuration not stated): the IC50 was > 79 µM (inactive).

For the compound `CCOC(=O)CC(NC(=O)c1ccc(Br)cc1)c1ccc(F)c([N+](=O)[O-])c1` (configuration not stated), the IC50 is > 79 µM (inactive).

For the compound `CCNC(=O)CCc1nc(-c2ccccc2Cl)no1`, the IC50 was > 79 µM (inactive).

Turning to `CCNC(=O)CCc1nc(-c2ccc(C(C)C)cc2)no1`, the IC50 is > 79 µM (inactive).

Take `CCOc1ccc(-c2nc(CSCC(=O)O)c(C)o2)cc1`: the IC50 is > 79 µM (inactive).

As for `CCc1ccc(-c2noc(CCC(=O)NC)n2)cc1`, the IC50 was > 79 µM (inactive).

For the compound `Cc1oc(-c2ccc(C(F)(F)F)cc2)nc1CSCC(=O)NC1CC1`, the IC50 is > 79 µM (inactive).

On to `CCOc1ccc(-c2nc(CSCC(=O)NC3CC3)c(-c3ccccc3)o2)cc1`, for which the IC50 is > 79 µM (inactive).

`CCOc1ccc(-c2nc(CSCC(=O)NC(C)(C)C)c(C)o2)cc1`: the IC50 is > 79 µM (inactive).

Consider `COc1cccc(-c2cc(=O)c3cc(NC(=O)c4ccccc4)ccc3[nH]2)c1`, for which the IC50 is 60.4 µM (inactive).

For `O=C(CCc1nc(-c2ccccc2)no1)NC1CC1`, the IC50 is > 79 µM (inactive).

With `CCC(C)NC(=O)CCc1nc(-c2ccccc2)no1` (configuration not stated), the IC50 is > 79 µM (inactive).

Take `CC(C)(C)NC(=O)CCc1nc(-c2ccccc2)no1`: the IC50 is > 79 µM (inactive).

On to `CCCCc1ccc(-c2noc(CCC(=O)NC3CC3)n2)cc1`, for which the IC50 was > 79 µM (inactive).
